Data reported in US8030354B2, “Substituted biphenyl GPR40 modulators” (Amgen Inc., priority 2007, dated 2011).

Target: GPR40 (Homo sapiens, UniProt O14842)
Experiment: Cell-based aequorin assay (CHO cells stably expressing GPR40 and aequorin)
Parameters: expressed in transfected cells; host or cells: CHO cells stably transfected with GPR40 and aequorin
Conditions: activation of human GPR40, CHO cells, 0.01% HSA
Procedure: Briefly, the Aequorin assays were performed on doubly stable CHO cells expressing GPR40 and Aequorin DNA. […] The luminescence was recorded over a period of 20 seconds with a Microlumat luminometer (Berthold). […] The inositol phosphate assay was performed on an A9 cell line stably transfected with GPR40 (A9_GPR40). The cells were incubated with different concentrations of compounds and [^3H] inositol accumulation was measured after 1 hour.
Cell-based aequorin assays were employed to characterize the modulatory activity of compounds on the GPR40 signaling pathway. In an exemplary assay, CHO cells were stably transfected with both GPR40 and Aequorin (Euroscreen). Cells were detached from the tissue culture dish with 2 mL of trypsin (0.25%(w/v)). Trypsinization was halted with 28 mL of Hanks Buffered Salt Solution containing 20 mM Hepes (H/HBSS) and 0.01% fatty acid-free human serum albumin (HSA). Coelantrazine is added to 1 ug/mL, and the cells were incubated for 2 hours at room temperature. Compounds were dissolved in DMSO for preparation of 10 mM stock solutions. Compounds were diluted in H/HBSS containing 0.01% HSA. Serial dilutions of the test compounds were prepared to determine dose response.
Aequorin luminescence measurements were made using an EG&G Berthold 96-well luminometer, and the response was measured over a 20 second interval after cells and compounds were mixed. The maximum relative light units was plotted to determine dose response. The EC50 (effective concentration to reach 50% maximal response) was determined from the dose response plot.

Chain of GPR40 (O14842 whole entry): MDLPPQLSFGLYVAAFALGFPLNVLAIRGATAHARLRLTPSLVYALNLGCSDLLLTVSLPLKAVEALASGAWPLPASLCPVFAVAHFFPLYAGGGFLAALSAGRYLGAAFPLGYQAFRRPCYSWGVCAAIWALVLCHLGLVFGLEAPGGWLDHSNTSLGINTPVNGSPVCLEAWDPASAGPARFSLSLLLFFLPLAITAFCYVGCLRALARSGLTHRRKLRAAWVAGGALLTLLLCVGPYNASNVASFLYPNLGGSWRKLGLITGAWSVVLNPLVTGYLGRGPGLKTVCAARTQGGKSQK

Compound | EC50
COc1ccc(F)c(-c2ccc(COc3cccc([C@H](C)CC(=O)O)c3)cc2OC2CCCCO2)c1 (single isomer, unassigned) [Example 26, (3R)-3-(3-(((2′-Fluoro-5′-(methyloxy)-2-(tetrahydro-2H-pyran-2-yloxy)-1,1′-biphenyl-4-yl)methyl)oxy)phenyl)butanoic acid or (3S)-3-(3-(((2′-fluoro-5′-(methyloxy)-2-(tetrahydro-2H-pyran-2-yloxy)-1,1′-biphenyl-4-yl)methyl)oxy)phenyl)butanoic acid] | 100 to 1000 nM
COc1ccc(F)c(-c2ccc(COc3cccc([C@H](C)CC(=O)O)c3)cc2OCC(C)C)c1 (single isomer, unassigned) [Example 29, (3R)-3-(3-(((2′-Fluoro-5′-(methyloxy)-2-((2-methylpropyl)oxy)-1,1′-biphenyl-4-yl)methyl)oxy)phenyl)butanoic acid or (3S)-3-(3-(((2′-fluoro-5′-(methyloxy)-2-((2-methylpropyl)oxy)-1,1′-biphenyl-4-yl)methyl)oxy)phenyl)butanoic acid] | 100 to 1000 nM
COc1ccc(F)c(-c2ccc(COc3cccc([C@H](C)CC(=O)O)c3)cc2OC(C)C)c1 (single isomer, unassigned) [Example 31, (3R)-3-(3-(((2′-Fluoro-2-((1-methylethyl)oxy)-5′-(methyloxy)-1,1′-biphenyl-4-yl)methyl)oxy)phenyl)butanoic acid or (3S)-3-(3-(((2′-fluoro-2-((1-methylethyl)oxy)-5′-(methyloxy)-1,1′-biphenyl-4-yl)methyl)oxy)phenyl)butanoic acid] | 100 to 1000 nM
COc1ccc(F)c(-c2ccc(COc3cccc([C@H](C)CC(=O)O)c3)cc2OC2CCCC2)c1 (single isomer, unassigned) [Example 32, (3R)-3-(3-(((2-(Cyclopentyloxy)-2′-fluoro-5′-(methyloxy)-1,1′-biphenyl-4-yl)methyl)oxy)phenyl)butanoic acid or (3S)-3-(3-(((2-(cyclopentyloxy)-2′-fluoro-5′-(methyloxy)-1,1′-biphenyl-4-yl)methyl)oxy)phenyl)butanoic acid] | 100 to 1000 nM
C=C(C)[C@@H](CC(=O)O)c1cccc(OCc2ccc(-c3cc(OC)ccc3F)c(C(C)(C)C)c2)c1 (single isomer, unassigned) [Example 48, (3R)-3-(3-(((2-(1,1-Dimethylethyl)-2′-fluoro-5′-(methyloxy)-1,1′-biphenyl-4-yl)methyl)oxy)phenyl)-4-methyl-4-pentenoic acid or (3S)-3-(3-(((2-(1,1-dimethylethyl)-2′-fluoro-5′-(methyloxy)-1,1′-biphenyl-4-yl)methyl)oxy)phenyl)-4-methyl-4-pentenoic acid] | 1000 to 10000 nM
COc1ccc(F)c(-c2ccc(COc3cccc([C@@H](CC(=O)O)C(C)C)c3)cc2C(C)(C)C)c1 (single isomer, unassigned) [Example 52] | 1000 to 10000 nM
COc1cccc(-c2ccc(COc3cccc([C@@H](CC(=O)O)C(C)C)c3)cc2C(C)(C)C)c1 (single isomer, unassigned) [Example 58, (3S)-3-(3-(((2-(1,1-Dimethylethyl)-3′-(methyloxy)-1,1′-biphenyl-4-yl)methyl)oxy)phenyl)-4-methylpentanoic acid or (3R)-3-(3-(((2-(1,1-dimethylethyl)-3′-(methyloxy)-1,1′-biphenyl-4-yl)methyl)oxy)phenyl)-4-methylpentanoic acid] | 1000 to 10000 nM
COc1ccc(F)c(-c2ccc(COc3cccc(CC(C)C(=O)O)c3)cc2C2=CCCC2(C)C)c1 (single isomer, unassigned) [Example 62.1, (2R)-3-(3-(((2-(5,5-Dimethyl-1-cyclopenten-1-yl)-2′-fluoro-5′-(methyloxy)-1,1′-biphenyl-4-yl)methyl)oxy)phenyl)-2-methylpropanoic acid or (2S)-3-(3-(((2-(5,5-dimethyl-1-cyclopenten-1-yl)-2′-fluoro-5′-(methyloxy)-1,1′-biphenyl-4-yl)methyl)oxy)phenyl)-2-methylpropanoic acid] | 100 to 1000 nM
COc1ccc(F)c(-c2ccc(COc3cccc(CC(C)C(=O)O)c3)cc2C2CCCC2(C)C)c1 (single isomer, unassigned) [Example 62.2, (2R)-3-(3-(((2-(2,2-Dimethylcyclopentyl)-2′-fluoro-5′-(methyloxy)-1,1′-biphenyl-4-yl)methyl)oxy)phenyl)-2-methylpropanoic acid or (2S)-3-(3-(((2-(2,2-dimethylcyclopentyl)-2′-fluoro-5′-(methyloxy)-1,1′-biphenyl-4-yl)methyl)oxy)phenyl)-2-methylpropanoic acid] | 100 to 1000 nM
COc1ccc(F)c(-c2ccc(COc3cccc(C[C@H](C)C(=O)O)c3)cc2C2=CCCC2(C)C)c1 (single isomer, unassigned) [Example 63.1, (2S)-3-(3-(((2-(5,5-Dimethyl-1-cyclopenten-1-yl)-2′-fluoro-5′-(methyloxy)-1,1′-biphenyl-4-yl)methyl)oxy)phenyl)-2-methylpropanoic acid or (2R)-3-(3-(((2-(5,5-dimethyl-1-cyclopenten-1-yl)-2′-fluoro-5′-(methyloxy)-1,1′-biphenyl-4-yl)methyl)oxy)phenyl)-2-methylpropanoic acid] | 100 to 1000 nM

Further lines, results first:

EC50 | Compound
1000 to 10000 nM | CCCCOc1cc(COc2cccc([C@H](C)CC(=O)O)c2)ccc1-c1cc(OCC)ccc1F (single isomer, unassigned) [Example 23, (3R)-3-(3-(((2-(Butyloxy)-5′-(ethyloxy)-2′-fluoro-1,1′-biphenyl-4-yl)methyl)oxy)phenyl)butanoic acid or (3S)-3-(3-(((2-(butyloxy)-5′-(ethyloxy)-2′-fluoro-1,1′-biphenyl-4-yl)methyl)oxy)phenyl)butanoic acid]
1000 to 10000 nM | CCCCOc1cc(COc2cccc([C@H](C)CC(=O)O)c2)ccc1-c1ccccc1F (single isomer, unassigned) [Example 24, (3R)-3-(3-(((2-(Butyloxy)-2′-fluoro-1,1′-biphenyl-4-yl)methyl)oxy)phenyl)butanoic acid or (3S)-3-(3-(((2-(butyloxy)-2′-fluoro-1,1′-biphenyl-4-yl)methyl)oxy)phenyl)butanoic acid]
> 10000 nM | CCCCOc1cc(COc2cccc([C@H](C)CC(=O)O)c2)ccc1-c1ccccc1OC (single isomer, unassigned) [Example 25, (3R)-3-(3-(((2-(Butyloxy)-2′-(methyloxy)-1,1′-biphenyl-4-yl)methyl)oxy)phenyl)butanoic acid or (3S)-3-(3-(((2-(butyloxy)-2′-(methyloxy)-1,1′-biphenyl-4-yl)methyl)oxy)phenyl)butanoic acid]
1000 to 10000 nM | CCCOc1cc(COc2cccc([C@H](C)CC(=O)O)c2)ccc1-c1cc(OC)ccc1F (single isomer, unassigned) [Example 27, (3R)-3-(3-(((2′-Fluoro-5′-(methyloxy)-2-(propyloxy)-1,1′-biphenyl-4-yl)methyl)oxy)phenyl)butanoic acid or (3S)-3-(3-(((2′-fluoro-5′-(methyloxy)-2-(propyloxy)-1,1′-biphenyl-4-yl)methyl)oxy)phenyl)butanoic acid]
100 to 1000 nM | CCCCCOc1cc(COc2cccc([C@H](C)CC(=O)O)c2)ccc1-c1cc(OC)ccc1F (single isomer, unassigned) [Example 28, (3R)-3-(3-(((2′-Fluoro-5′-(methyloxy)-2-(pentyloxy)-1,1′-biphenyl-4-yl)methyl)oxy)phenyl)butanoic acid or (3S)-3-(3-(((2′-fluoro-5′-(methyloxy)-2-(pentyloxy)-1,1′-biphenyl-4-yl)methyl)oxy)phenyl)butanoic acid]
1000 to 10000 nM | COc1ccc(F)c(-c2ccc(COc3cccc([C@H](C)CC(=O)O)c3)cc2OCc2ccccc2)c1 (single isomer, unassigned) [Example 30, (3R)-3-(3-(((2′-Fluoro-5′-(methyloxy)-2-((phenylmethyl)oxy)-1,1′-biphenyl-4-yl)methyl)oxy)phenyl)butanoic acid or (3S)-3-(3-(((2′-fluoro-5′-(methyloxy)-2-((phenylmethyl)oxy)-1,1′-biphenyl-4-yl)methyl)oxy)phenyl)butanoic acid]
1000 to 10000 nM | CCCCOc1cc(COc2cccc([C@@H](CC(=O)O)C(C)C)c2)ccc1-c1cc(OC)ccc1F (single isomer, unassigned) [Example 53]
1000 to 10000 nM | C=CC[C@H](CC(=O)O)c1cccc(OCc2ccc(-c3cc(OC)ccc3F)c(OCCCC)c2)c1 (single isomer, unassigned) [Example 54, (3R)-3-(3-(((2-(Butyloxy)-2′-fluoro-5′-(methyloxy)-1,1′-biphenyl-4-yl)methyl)oxy)phenyl)-5-hexenoic acid or (3S)-3-(3-(((2-(butyloxy)-2′-fluoro-5′-(methyloxy)-1,1′-biphenyl-4-yl)methyl)oxy)phenyl)-5-hexenoic acid]
